Measured values taken from patent US20130123367A1, “VINYLOGOUS CHALCONE DERIVATIVES AND THEIR MEDICAL USE” (MEDIZINISCHE UNIVERSITAT WIEN, priority 2010, published 2013).

Columns and labels:
Type in all cases: cell-based
HCT116 cell line = assay: Cell proliferation assay using crystal violet, HCT116; settings: Homo sapiens, HCT-116, n = 3, 24 h incubation
Procedure: (§1) For quantification, cells are treated with crystal violet, a dye that stains proteins. After washing away of excess dye, the remaining crystal violet is dissolved in a sodium citrate solution. The solution is analyzed photometrically at 590 nm. The optical density of this solution depends on the concentration of crystal violet and therefore on the amount of cells. […] To reduce effects of evaporation, only the inner 60 wells of 96-well plates (coated with 0.1% gelatine solution for studies with HUVEC) were used for experiments.
(§2) Cells were seeded at a density of 5 000 cells per well in 100 μl growth medium (HUVEC) or 20 000 (HCT116), 15 000 (SW480 and 518A2) or 10 000 (HT29) cells per well in 200 μl growth medium in 55 wells per plate. 5 wells were filled with medium only. Additionally, a 96-well plate with cells in 12 wells and medium in 6 wells was prepared as T0-plate. The next day, additional 98 μl of growth medium were added in every well (only HUVEC).
(§3) Cells were treated with 2 μl of the working solution 24 h after seeding. Final compound concentrations in the well were 10 μM for the first round of screening. The final DMSO concentration was 0.5%. […] After finishing the addition of compounds, the T0-plate was stained with crystal violet for giving the cell density at time point zero. Before staining, the growth medium was poured away. Wells were filled with 50 μl crystal violet solution for 10 min. Then the staining solution was washed away with water. Since crystal violet is environmentally hazardous the waste was collected and disposed in an appropriate manner. After air drying of the plates the crystal violet on the cells was dissolved in 100 μl of sodium citrate solution, and the absorption was measured with a plate reader at 590 nm.
Mean values were corrected with the absorption of stained medium and the corrected absorption of T0 cells. Cell growth was calculated relative to DMSO control for data comparison.

[1] = test system: colon cancer cell line HT29; assay: Cell proliferation assay using crystal violet, HT29; settings: Homo sapiens, HT-29, n = 3, 24 h incubation
Procedure: as §1, §2, §3
Mean values were corrected with the absorption of stained medium and the corrected absorption of T0 cells. Cell growth was calculated relative to DMSO control for data comparison. IC50 values (50% inhibition of cell growth) were determined with GraphPad Prism® (Version 4.03) using nonlinear regression (sigmoidal dose-response with variable slope). […]

SW480 cells = assay: Cell cycle analysis by flow cytometry; settings: 0.03, 0.1 or 0.3 μM compared to DMSO control; FIG. 5
Procedure: FIG. 5: Cell cycle analysis using SW480 cells treated with 0 μM (control using DMSO), 0.03 μM, 0.1 μM or 0.3 μM of compound 22.
To quantify the cellular DNA content, DNA is visualized by staining with propidium iodide (PI), a fluorescent dye which binds to double stranded DNA. To allow PI to enter cells they are permeabilized with Triton-X. The fluorescence intensity per cell, which correlates with its DNA content, is measured by flow cytometry. The G0/G1 peak represents cells in the usual diploid state. Apoptotic cells are characterized through a peak in the FACS histogram below the G0/G1 peak (sub G1) (Nicoletti I et al. J. Immunol. Methods 1991, 139 (2), 271-279):
Since cells in different phases of the cell cycle have a different DNA content this method can also be used for measuring the amount of cells in different stages of the cell cycle. Cells were seeded in 12-well plates at a density 10 fold more than used in 96-well plates in 2 ml growth media. Cells were incubated for one day, until they reached 50-70% confluence. Then they were stimulated with different concentrations of the test compounds, according to the data available from proliferation assays. […]
Cells were measured by flow cytometry 50-150 events/second with a total of 10 000 events using channel FL2-A. Data were analyzed with CellQuest Pro™. Mean values from different repeats were analyzed using GraphPad Prism® 4.03.

IC50 (HCT116 cell line) [nM]	IC50 [1] [nM]	SMILES	“DNA>4N” portion (inhibition of cell division) (SW480 cells)	“Sub G1” portion (induction of apoptosis) (SW480 cells)
230	540	COc1ccccc1/C=C/C=C/C(=O)c1cc(OC)c(OC)c(OC)c1 [Compound 1, 5-(2-Methoxyphenyl)-1-(3′,4′,5′-trimethoxyphenyl)-2,4-pentadiene-1-one]	–	–
–	–	CCOc1ccccc1C(=O)/C=C/c1ccc2ccccc2c1 [Compound 22, 3-(2-Naphthyl)-1-(2′-ethoxyphenyl)-2-propene-1-one]	increase	increase
